Values of other authors as cited in patent US6646013B1, “Nutrient formulations for disease reduction” (Nutri-Logics, priority 1999, dated 2003).
Like-named read-outs stand apart in the source and are kept apart here. One block for each molecule: values may come before it.

Assays:
[1] = saturable absorption
[2] = tested on: rats; conditions: oral doses
[3] = animal fertility studies
[4] = tested on: mice; conditions: oral doses
[5] = circulation
[6] = not given; remark: listed apart in the source
[7] = tested on: colorectal cancer; conditions: meta-analysis of twenty-four studies, calcium intake
[8] = not given; remark: listed apart in the source
[9] = gastrointestinal side effects (distress, bloating)
[10] = tested on: colon carcinogenesis; conditions: rat colon model for carcinogenesis
[11] = tested on: colon cancer; conditions: patients with chronic ulcerative colitis
[12] = not given; remark: listed apart in the source
[13] = not given; remark: listed apart in the source
[14] = normal parathyroid function and vitamin D sensitivity
[15] = tested on: vitamin K activity; conditions: vitamin K-deficient patients
[16] = tested on: prostate cancer; conditions: vitamin E intake [37]
[17] = not given; remark: listed apart in the source

- concentration at which absorption is half-maximal [1]: about 1 mM
Molecule: O=C1O[C@H]([C@@H](O)CO)C(O)=C1O [Ascorbate, ascorbic acid]

Molecule: CC(=O)N[C@@H](CS)C(=O)O [NAC, N-Acetyl-l-cysteine]
- LD50 [2]: greater than 6000 mg/kg
- dose with no adverse effects reported [3]: up to 250 mg/kg
- dose with no teratogenic effects observed [3]: ≤ 2000 mg/kg
- plasma half-life of free NAC (estimated): about 2 hours
- time to peak plasma NAC concentration (oral administration): less than one
- bioavailability of the intact NAC molecule (oral, estimated): 4-10%
- time post-administration at which virtually no NAC is detected (plasma): 10 to 12 h
- LD50 [4]: 7888 mg/kg

- share of circulating vitamin B6 [5]: at least 60%
Molecule: Cc1ncc(COP(=O)(O)O)c(C=O)c1O [Pyridoxal phosphate, pyridoxal 5′ phosphate]

- time to peak plasma concentrations ([6]; oral): ≤ 2 h
- time to significant plasma concentrations ([6]; oral): ≤ 30 min
- excreted in the urine as acyl glucuronide ([6]; urine): 5%
- excreted in the urine as free salicylic acid ([6]; urine): 10%
- excreted in the urine as salicylic phenolic glucuronide ([6]; urine): 10%
- excreted in the urine as salicyluric acid ([6]; urine): 75%
Molecule: O=C(O)c1ccccc1O [Salicylate, salicylic acid]

Molecule: [Ca] [calcium]
- summary relative risk of colorectal cancer [7]: 0.89 (0.79-1.01)
- fraction complexed to anionic buffers ([8]; human plasma): about 10%
- fraction bound to plasma proteins ([8]; human plasma, primarily albumin): approximately 45%
- fraction of filtered Ca2+ reabsorbed ([8]; kidney): approximately 98%
- supplement dose above which generally not well tolerated [9]: exceeding 800 mg per day

Molecule: COc1cc(/C=C/C(=O)CC(=O)/C=C/c2ccc(O)c(OC)c2)ccc1O [curcumin, (E,E)-1,7-Bis(4-hydroxy-3-methoxyphenyl)-1,6-heptadiene-3,5-dione]
- efficacy of pure form (>98%) versus food-grade curcumin [10]: equally effective

Molecule: Nc1nc2ncc(CNc3ccc(C(=O)N[C@@H](CCC(=O)O)C(=O)O)cc3)nc2c(=O)[nH]1 [folic acid, N-[**4-[**[**(2-Amino-1,4-dihydro-4-oxo-6-pteridinyl)methyl]amino]benzoyl]-L-glutamic Acid]
- lower incidence of colon cancer versus no supplementation [11]: 62%
- dose with no adverse human effects ([12]; duration not stated): 15 mg/day
- dose with no adverse human effects ([12]; for 4 months): 10 mg/day

- dose at which symptoms of dependency were noted ([13]; adults): 200 mg daily
Molecule: Cc1ncc(CO)c(CO)c1O [vitamin B6, pyridoxine]
- dose at which neurotoxicity may develop ([13]; prolonged ingestion): 200 mg per day

Molecule: C=C1CC[C@H](O)C/C1=C/C=C1\CCC[C@]2(C)[C@@H]([C@H](C)CCCC(C)C)CC[C@@H]12 [vitamin D, (3β,5Z,7E)-9,10-Secocholesta-5,7,10(19)-triene-3-ol]
- continuous daily ingestion causing signs of hypervitaminosis [14]: ≥ 50,000 units daily

- prolonged daily intake after which bleeding is a concern [15]: > 800 IU
Molecule: Cc1c(C)c2c(c(C)c1O)CCC(C)(CCCC(C)CCCC(C)CCCC(C)C)O2 (stereo not shown) [vitamin E, 3,4-Dihydro-2,5,7,8-tetramethyl-2-(4,8,12-trimethyltridecyl)-2H-1-benzopyran-6-ol]
- decrease in the incidence of prostate cancer [16]: 34%

- share of the body's stores in the liver [17]: ≤ 90%
Molecule: Cyanocobalamin [vitamin B12]
